Assay: xn = mol fraction of the nth substance listed
Conditions: 100 kPa, Liquid; for speed of sound: Frequency=3 MHz, Sing-around technique in a fixed-path interferometer; for mass density: Vibrating tube method

CCCCOCC(C)O (stereo not given) [1-butoxy-2-propanol] + CCC(C)O
Conditions | mass density, 293.15 K [kg/m3] | mass density, 298.15 K [kg/m3] | speed of sound, 293.15 K [m/s] | speed of sound, 298.15 K [m/s] | speed of sound, 303.15 K [m/s]
x1 = 0.0517 | 812.712 | 808.614 | 1234.4 | 1217.3 | 1201.4
x1 = 0.1014 | 818.284 | 814.152 | 1238.8 | 1221.5 | 1205.7
x1 = 0.1527 | 823.685 | 819.533 | 1243 | 1225.9 | 1209.6
x1 = 0.2041 | 828.704 | 824.532 | 1246.9 | 1229.4 | 1213.3
x1 = 0.2815 | 835.699 | 831.499 | 1252.2 | 1234 | 1218.3
x1 = 0.3581 | 841.995 | 837.767 | 1256.8 | 1238.2 | 1222.6
x1 = 0.4421 | 848.377 | 844.12 | 1261.1 | 1242.5 | 1226.7
x1 = 0.5348 | 854.7 | 850.417 | 1265.3 | 1246.8 | 1230.6
x1 = 0.627 | 860.446 | 856.141 | 1268.8 | 1250.7 | 1233.8
x1 = 0.7213 | 865.799 | 861.469 | 1271.6 | 1254 | 1236.5
x1 = 0.8116 | 870.476 | 866.131 | 1274 | 1256.4 | 1238.8
x1 = 0.8581 | 872.724 | 868.372 | 1275.3 | 1257.5 | 1239.8
x1 = 0.9062 | 874.964 | 870.61 | 1276.4 | 1258.6 | 1240.8
x1 = 0.9536 | 877.051 | 872.689 | 1277.7 | 1259.7 | 1242
x1 = 1 | 879.031 | 874.632 | 1279 | 1260.9 | 1242.9

Reference: the NIST ThermoML archive (doi:10.1016/j.jct.2014.07.019)
